The compounds below were run against T1, DDK (Dbf4-dependent Cdc7 kinase, Cdc7-Dbf4) (Saccharomyces cerevisiae, UniProt P06243) (assay: inhibition of MCM2-7 phosphorylation by DDK (gel)). Conditions: substrate MCM2-7.
T1 construct: full-length Cdc7-Dbf4, expressed in budding yeast, MBP tag cleaved with PreScission, lambda phosphatase treated; with DDK kinase regulatory subunit DBF4
Format: biochemical

T1 sequence (P06243 whole entry): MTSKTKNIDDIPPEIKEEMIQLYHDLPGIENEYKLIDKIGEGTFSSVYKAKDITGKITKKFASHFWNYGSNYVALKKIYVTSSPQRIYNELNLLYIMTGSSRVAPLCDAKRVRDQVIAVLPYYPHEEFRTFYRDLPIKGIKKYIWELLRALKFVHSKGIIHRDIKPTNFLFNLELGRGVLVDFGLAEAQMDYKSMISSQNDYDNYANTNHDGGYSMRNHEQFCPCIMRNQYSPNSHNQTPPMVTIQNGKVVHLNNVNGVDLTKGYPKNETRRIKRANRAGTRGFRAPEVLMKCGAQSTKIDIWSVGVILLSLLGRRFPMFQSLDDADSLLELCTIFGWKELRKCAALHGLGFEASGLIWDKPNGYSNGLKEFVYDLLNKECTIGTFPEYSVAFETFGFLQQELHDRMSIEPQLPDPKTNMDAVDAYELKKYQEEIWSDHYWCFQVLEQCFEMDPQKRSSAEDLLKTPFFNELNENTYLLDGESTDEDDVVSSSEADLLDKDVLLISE
T1 sequence (P32325 whole entry partner): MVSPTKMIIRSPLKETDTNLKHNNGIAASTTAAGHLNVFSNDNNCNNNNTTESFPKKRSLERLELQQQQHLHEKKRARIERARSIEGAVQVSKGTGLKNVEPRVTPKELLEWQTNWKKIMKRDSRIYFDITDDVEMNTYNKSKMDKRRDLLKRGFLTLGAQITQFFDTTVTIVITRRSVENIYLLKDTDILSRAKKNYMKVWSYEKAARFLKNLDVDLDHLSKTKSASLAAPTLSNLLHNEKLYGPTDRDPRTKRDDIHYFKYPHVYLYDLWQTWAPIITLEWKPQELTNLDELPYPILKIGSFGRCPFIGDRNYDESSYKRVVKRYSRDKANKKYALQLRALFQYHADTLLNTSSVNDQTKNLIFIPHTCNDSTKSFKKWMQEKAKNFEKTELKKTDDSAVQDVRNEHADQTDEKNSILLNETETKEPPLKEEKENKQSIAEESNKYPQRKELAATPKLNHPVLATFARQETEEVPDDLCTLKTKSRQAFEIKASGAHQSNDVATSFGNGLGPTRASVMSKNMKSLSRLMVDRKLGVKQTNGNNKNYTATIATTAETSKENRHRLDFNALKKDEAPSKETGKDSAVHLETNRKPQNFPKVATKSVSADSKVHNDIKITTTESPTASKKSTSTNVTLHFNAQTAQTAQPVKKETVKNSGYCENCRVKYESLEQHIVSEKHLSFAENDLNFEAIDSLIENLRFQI

Row | Structure (SMILES) | inhibition
1 | O=C1NCCc2[nH]c(-c3ccncc3)cc21 [PHA767491] | DDK phosphorylation of MCM2-7 is inhibited by the human Cdc7 inhibitors: XL413, PHA767491 and TAK931
2 | O=c1[nH]c([C@@H]2CCCN2)nc2c1oc1ccc(Cl)cc12 [XL413] | DDK phosphorylation of MCM2-7 is inhibited by the human Cdc7 inhibitors: XL413, PHA767491 and TAK931
3 | Cc1[nH]ncc1-c1cc2nc([C@@H]3CC4CCN3CC4)[nH]c(=O)c2s1 [TAK931] | DDK phosphorylation of MCM2-7 is inhibited by the human Cdc7 inhibitors: XL413, PHA767491 and TAK931
